Read-outs that look alike come from different tables or passages of the source.

Here are results for seven molecules from article PMC7286788 (ACS infectious diseases, 2019).

Series [1] concerns the target T1, MsmegMurG (Mycolicibacterium smegmatis, UniProt A0R016). The series is described as follows: biochemical. More on the design: species or system Mycobacterium smegmatis. The following applies: read-out: (MsmegMurG) inhibition (%).
The target of series [2] is T2, HyMurG (Hydrogenivirga sp. 128-5-R1-1, UniProt A8US35). The series is described as follows: UV-Vis-based MurG assay. Particulars: for Inhibition of MurG function / lipid II formation: 50–100 μM; for inhibition at 10 µM / inhibition at 50 µM / inhibition at 100 µM: read-out: HthermMurG inhibition (%). The series is classed as biochemical.
T2 sequence (A8US35 1-350): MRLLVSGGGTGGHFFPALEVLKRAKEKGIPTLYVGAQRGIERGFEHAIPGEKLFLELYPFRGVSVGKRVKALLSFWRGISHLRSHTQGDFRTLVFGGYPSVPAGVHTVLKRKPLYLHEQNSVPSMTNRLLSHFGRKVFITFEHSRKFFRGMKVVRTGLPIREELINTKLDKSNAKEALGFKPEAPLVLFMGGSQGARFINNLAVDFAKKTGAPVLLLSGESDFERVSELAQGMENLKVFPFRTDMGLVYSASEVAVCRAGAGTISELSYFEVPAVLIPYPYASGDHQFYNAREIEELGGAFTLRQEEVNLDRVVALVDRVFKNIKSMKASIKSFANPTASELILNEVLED
Another series has as its target MsmegMraY (Mycolicibacterium smegmatis, UniProt A0R019). Put plainly: biochemical. The format is biochemical, Mycobacterium smegmatis.
In series [3] the target is T1, MsmegMurG. The series is described as follows: biochemical. More on the design: species or system Mycobacterium smegmatis.
Another series is described as follows: in vitro. The following applies: African green monkey.
Another series relates to M. smegmatis (ATCC607). Put plainly: MIC determination, resazurin, M. smegmatis. Particulars: 7H9 with 0.5% tween 80, 3 days at 37 °C. The series is classed as cell-based, Mycobacterium smegmatis.
Another series relates to M. tuberculosis (H37Rv). Put plainly: MIC determination, M. tuberculosis. The series is classed as cell-based, Mycobacterium tuberculosis. Particulars: 7H9 containing OADC; 14 days.
The target in series [4] is T2, HyMurG. Put plainly: HPLC-based MurG assay, dose-response, HyMurG. The series is classed as biochemical. The following applies: read-out: IC50 HyMurG; HPLC-based method; average of two-three experiments.

Sequence of MsmegMraY (A0R019 whole entry): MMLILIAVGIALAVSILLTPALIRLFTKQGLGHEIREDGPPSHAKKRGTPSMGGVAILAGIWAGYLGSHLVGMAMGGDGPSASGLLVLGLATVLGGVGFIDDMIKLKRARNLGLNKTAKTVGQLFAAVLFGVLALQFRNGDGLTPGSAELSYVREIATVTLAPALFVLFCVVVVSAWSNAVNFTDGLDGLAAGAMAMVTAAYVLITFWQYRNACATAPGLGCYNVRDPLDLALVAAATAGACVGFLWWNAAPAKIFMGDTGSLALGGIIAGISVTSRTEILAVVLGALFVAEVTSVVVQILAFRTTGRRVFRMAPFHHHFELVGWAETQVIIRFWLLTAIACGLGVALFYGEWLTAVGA
T1 sequence (A0R016 whole entry): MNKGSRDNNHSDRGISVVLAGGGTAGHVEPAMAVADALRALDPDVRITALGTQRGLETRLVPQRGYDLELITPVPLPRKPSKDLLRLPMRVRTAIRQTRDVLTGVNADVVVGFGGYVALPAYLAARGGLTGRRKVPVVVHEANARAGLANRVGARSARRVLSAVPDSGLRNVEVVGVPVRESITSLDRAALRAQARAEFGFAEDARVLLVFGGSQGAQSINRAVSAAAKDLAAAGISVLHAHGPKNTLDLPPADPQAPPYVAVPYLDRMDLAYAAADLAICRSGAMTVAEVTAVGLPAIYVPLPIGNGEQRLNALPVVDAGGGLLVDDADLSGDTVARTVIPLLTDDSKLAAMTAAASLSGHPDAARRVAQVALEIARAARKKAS

Regarding `CO[C@H]1[C@@H](O)[C@H](n2ccc(=O)[nH]c2=O)O[C@@H]1[C@@H](O[C@H]1OC(C(=O)N[C@H]2CCCCNC2=O)=C[C@H](O)[C@@H]1O)C(N)=O` [Capuramycin, capuramycin], at MsmegMurG [1], the inhibition (commonly the change of the read-out against control, counted positive when it falls) at 10 µM came out at 0%; the inhibition at 50 µM is 0%; the inhibition at 100 µM worked out at 0%. For the same molecule, on HyMurG [2], the “Inhibition of MurG function / lipid II formation” value is on record as “did not inhibit”, the inhibition at 10 µM worked out at 0%, the inhibition at 50 µM was determined as 0% and the inhibition at 100 µM worked out at 0%. Also, at MsmegMraY, the IC50 (usually the concentration that gives 50% inhibition) was 0.13 µM. For the same molecule, at MsmegMurG [3], the IC50 was > 100 µM.

With `CC[C@@H](CO)NCCN[C@@H](CC)CO` [Ethambutol], the IC50 in the series “in vitro” was > 100 µg/mL.

With `NNC(=O)c1ccncc1` [INH], the “M. smegmatis (ATCC607) MIC” value with M. smegmatis (ATCC607) was determined as 0.78 µg/mL. The “M. tuberculosis (H37Rv) MIC” value in the series with M. tuberculosis (H37Rv) turned out to be 0.16 µg/mL. Also, the “Vero cell cytotoxicity IC50” value with Vero cell is >100 µg/mL.

In the case of `C=C(C/C=C(\C)CCC=C(C)C)CCC(C)(C)/C=C/CC/C(C)=C\CO[C@H](COP(=O)(O)O[C@H]1O[C@H](C(N)=O)[C@@](C)(O)[C@H](OC(N)=O)[C@H]1O[C@@H]1O[C@H](CO[C@@H]2O[C@H](CO)[C@@H](O)[C@H](O)[C@H]2O)[C@@H](O[C@@H]2O[C@H](C)[C@@H](O[C@@H]3O[C@H](C(=O)NC4=C(O)CCC4=O)[C@H](O)[C@H](O)[C@H]3O)[C@H](O)[C@H]2NC(C)=O)[C@H](O)[C@H]1NC(C)=O)C(=O)O` [Moenomycin A, moenomycin A], at MsmegMurG [1], the inhibition at 10 µM was determined as 0%, the inhibition at 50 µM was 0% and the inhibition at 100 µM is 15%. Also, at HyMurG [2], the “Inhibition of MurG function / lipid II formation” value was “did not inhibit”, the inhibition at 10 µM is 0%, the inhibition at 50 µM was 0% and the inhibition at 100 µM came out at 12%. The half-maximal inhibitory concentration (IC50) against MsmegMraY was > 100 µM. In addition, the IC50 at MsmegMurG [3] is > 100 µM.

In the case of `CO[C@H]1[C@@H](OC)[C@H](n2ccc(=O)[nH]c2=O)O[C@@H]1[C@@H](O[C@H]1OC(C(=O)N[C@H]2CCCCNC2=O)=C[C@H](O)[C@@H]1O)C(N)=O` [O-Methylcapuramycin, O-methylcapuramycin], the “Inhibition of MurG function / lipid II formation” value at HyMurG [2] was “did not inhibit”. The half-inhibitory concentration (IC50) was > 100 µM at HyMurG [4]; > 100 µM on MsmegMraY (read-out: IC50 MsmegMraY, HPLC-based method, average of two-three experiments); > 100 µM at MsmegMurG [3] (read-out: IC50 MsmegMurG, HPLC-based method, average of two-three experiments).

For `CO[C@H]1/C=C/O[C@@]2(C)Oc3c(C)c(O)c4c(O)c(c(/C=N/N5CCN(C)CC5)c(O)c4c3C2=O)NC(=O)/C(C)=C\C=C\[C@H](C)[C@H](O)[C@@H](C)[C@@H](O)[C@@H](C)[C@H](OC(C)=O)[C@@H]1C` [Rifampicin], the 50% inhibitory concentration (IC50) in the series “in vitro” was > 100 µg/mL.

In the case of `O=C(NC(=O)c1ccccc1Cl)Nc1ccc(OC(F)(F)F)cc1` [Triflumuron, triflumuron], the inhibition at 10 µM at MsmegMurG [1] and on HyMurG [2] was 0% in each case. The inhibition at 50 µM at MsmegMurG [1] and on HyMurG [2] was 0% throughout. Further, the inhibition at 100 µM on MsmegMurG [1] and at HyMurG [2] was 0% in each case. The “Inhibition of MurG function / lipid II formation” value on HyMurG [2] was “did not inhibit”. Besides, the IC50 at HyMurG [4], at MsmegMraY and against MsmegMurG [3] was > 100 µM in each case.
